Experiment [1] concerns the target human Maxi K channel (BK channel), KCNMA1 (KCa1.1) and beta1 (KCNMB1) subunits (Homo sapiens, UniProt Q12791).
Description: In Vitro Assay: Agonistic Activity at the Human Maxi K Channel (BK Channel)
A CHO K1 cell line was stably transfected with the KCNMA1 (KCa1.1, U11058) and beta1 (KCNMB1) subunits of the human Maxi K channel (Ponte et al, Molecular Pharmacology 2012, 81(4), 567-577).
Cells were seeded in microtiter plates (black 384-well MTP, clear bottom) in a concentration of 10,000 cells/well in 25 μl medium and cultured for 20 to 24 hours at 37° C. and 5% CO2. The cell medium was removed, and the cells washed with Tyrode's solution. 25 μl of FMP-dye Blue-Tyrode's was added to each well and incubated at room temperature for 30 min.
(§1) For the membrane potential measurements, the prepared cell plate and substance plate were placed in the FLIPR Tetra (Molecular Devices). The baseline measurement of the fluorescence was stared for 20 sec (Exc. 510-545 nm, Emm. 565-625 nm). The cells were depolarized by addition of 25 μl of the diluted test compounds (final assay concentration of the KCl-Tyrode: 70 mM KCl, 2 mM CaCl2, 1 mM MgCl2, 0.8 mM NaH2PO4, 5 mM Glucose, 28 mM Hepes, pH 7.4, including the voltage sensitive dye). The complete measurement takes 150 s.
(§2) EC50 values were determined in triplicate utilizing compound dilution series. The data were determined at least in two independent tests. The data were proceeded by using the ActivityBase XE Runner software (IDBS) for curve fitting and calculation of the half-maximal effective concentration.
For experiment [2], the target named is Caenorhabditis elegans slo-1a (Caenorhabditis elegans, UniProt Q95V25).
Description: In Vitro Assay: Agonistic Activity at C. elegans Slo-1a
A CHO K1 cell line stably transfected with the Caenorhabditis elegans slo-1a (accession no Y51A2D.19a) was established. Cells were seeded in microtiter plates (black 384-well MTP, clear bottom) in a concentration of 10,000 cells/well in 25 μl medium and cultured for 20 to 24 hours at 37° C. and 5% CO2. The cell medium was removed, and the cells washed with Tyrode's solution. 25 μl of FMP-dye Blue-Tyrode's was added to each well and incubated at room temperature for 30 min.
as §1, §2

EC50 data for 23 compounds are collected here from US12479841B2, “Anthelmintic compounds comprising azaindoles structure” (Intervet Inc., priority 2019, dated 2025).

Sequence of human Maxi K channel (BK channel), KCNMA1 (KCa1.1) and beta1 (KCNMB1) subunits (Q12791 1-1178 isoform Q12791-5): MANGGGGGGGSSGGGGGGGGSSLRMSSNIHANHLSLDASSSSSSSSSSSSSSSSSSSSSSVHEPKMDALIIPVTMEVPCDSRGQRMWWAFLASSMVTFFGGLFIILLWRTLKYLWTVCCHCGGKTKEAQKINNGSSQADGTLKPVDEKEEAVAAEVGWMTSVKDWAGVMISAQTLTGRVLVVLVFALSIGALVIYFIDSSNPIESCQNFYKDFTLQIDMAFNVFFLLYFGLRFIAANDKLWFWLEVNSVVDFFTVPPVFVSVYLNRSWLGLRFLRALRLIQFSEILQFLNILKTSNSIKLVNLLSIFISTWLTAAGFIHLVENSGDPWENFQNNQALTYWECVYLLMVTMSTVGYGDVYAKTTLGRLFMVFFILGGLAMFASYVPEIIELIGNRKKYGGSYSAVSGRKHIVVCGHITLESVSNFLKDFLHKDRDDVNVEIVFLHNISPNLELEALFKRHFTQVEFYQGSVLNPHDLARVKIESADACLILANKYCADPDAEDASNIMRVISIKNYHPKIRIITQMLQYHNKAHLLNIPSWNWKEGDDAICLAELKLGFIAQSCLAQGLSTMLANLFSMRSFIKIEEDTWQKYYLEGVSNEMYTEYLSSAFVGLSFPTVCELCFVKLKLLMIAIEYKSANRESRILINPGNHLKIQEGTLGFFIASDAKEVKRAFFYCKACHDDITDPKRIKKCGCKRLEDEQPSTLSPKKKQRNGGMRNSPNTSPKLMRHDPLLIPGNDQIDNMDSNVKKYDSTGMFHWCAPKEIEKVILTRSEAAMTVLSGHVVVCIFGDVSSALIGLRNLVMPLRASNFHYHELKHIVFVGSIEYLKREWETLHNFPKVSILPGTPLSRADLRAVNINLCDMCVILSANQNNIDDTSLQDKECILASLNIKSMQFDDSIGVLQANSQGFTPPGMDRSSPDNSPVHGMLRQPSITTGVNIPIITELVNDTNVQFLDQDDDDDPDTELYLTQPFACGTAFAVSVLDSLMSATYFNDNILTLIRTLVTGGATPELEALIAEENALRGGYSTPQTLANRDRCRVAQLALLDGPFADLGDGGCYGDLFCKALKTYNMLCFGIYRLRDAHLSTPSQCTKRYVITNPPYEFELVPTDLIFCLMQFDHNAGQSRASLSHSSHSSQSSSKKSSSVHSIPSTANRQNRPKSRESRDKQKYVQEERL
Sequence of human Maxi K channel (BK channel), KCNMA1 (KCa1.1) and beta1 (KCNMB1) subunits (Q16558 whole entry partner): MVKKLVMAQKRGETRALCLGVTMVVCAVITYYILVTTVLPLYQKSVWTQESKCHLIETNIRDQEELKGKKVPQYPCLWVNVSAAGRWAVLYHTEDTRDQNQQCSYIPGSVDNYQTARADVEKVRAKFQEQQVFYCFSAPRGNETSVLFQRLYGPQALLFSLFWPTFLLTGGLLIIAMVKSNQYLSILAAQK
Sequence of Caenorhabditis elegans slo-1a (Q95V25 whole entry): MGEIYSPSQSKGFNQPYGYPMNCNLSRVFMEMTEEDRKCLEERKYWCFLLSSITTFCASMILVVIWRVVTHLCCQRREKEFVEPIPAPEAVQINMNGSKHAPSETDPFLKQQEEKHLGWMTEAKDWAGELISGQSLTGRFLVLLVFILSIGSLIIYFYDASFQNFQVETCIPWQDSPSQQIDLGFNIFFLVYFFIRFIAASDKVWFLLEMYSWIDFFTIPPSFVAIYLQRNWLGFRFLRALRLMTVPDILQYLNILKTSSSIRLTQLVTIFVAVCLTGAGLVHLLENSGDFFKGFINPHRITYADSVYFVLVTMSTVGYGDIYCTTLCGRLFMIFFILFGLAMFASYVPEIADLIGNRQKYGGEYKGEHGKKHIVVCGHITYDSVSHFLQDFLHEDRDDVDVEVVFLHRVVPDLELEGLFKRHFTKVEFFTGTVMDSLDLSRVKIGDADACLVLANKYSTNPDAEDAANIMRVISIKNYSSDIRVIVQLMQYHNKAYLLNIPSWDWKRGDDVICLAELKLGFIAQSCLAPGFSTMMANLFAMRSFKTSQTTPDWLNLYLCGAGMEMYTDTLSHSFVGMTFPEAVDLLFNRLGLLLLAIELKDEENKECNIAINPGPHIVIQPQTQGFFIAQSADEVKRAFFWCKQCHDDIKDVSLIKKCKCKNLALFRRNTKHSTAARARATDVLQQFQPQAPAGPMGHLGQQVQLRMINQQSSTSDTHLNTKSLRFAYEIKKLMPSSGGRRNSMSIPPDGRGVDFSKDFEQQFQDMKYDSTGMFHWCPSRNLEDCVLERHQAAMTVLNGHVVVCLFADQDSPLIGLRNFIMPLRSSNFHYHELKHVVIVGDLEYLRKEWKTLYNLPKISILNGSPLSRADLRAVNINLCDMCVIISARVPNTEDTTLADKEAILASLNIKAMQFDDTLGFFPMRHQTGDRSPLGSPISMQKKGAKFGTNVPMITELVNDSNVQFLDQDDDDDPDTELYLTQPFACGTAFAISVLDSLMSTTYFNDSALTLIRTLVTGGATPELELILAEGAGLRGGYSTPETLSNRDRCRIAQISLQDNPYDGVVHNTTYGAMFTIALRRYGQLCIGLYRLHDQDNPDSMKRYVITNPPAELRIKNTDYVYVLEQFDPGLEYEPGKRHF

A word on the EC50: it is the concentration that produces a half-maximal response. Turning to `CN(C)c1c(C(=O)NC2CCc3ccccc32)cnc2c1ccn2-c1cc(Cl)cc(Cl)c1` (centres unmarked) [Compound 1, 1-(3,5-dichlorophenyl)-N-(2,3-dihydro-1H-inden-1-yl)-4-(dimethylamino)-1H-pyrrolo[2,3-b]pyridine-5-carboxamide], the EC50 in experiment [1] was greater than 30 µM; in experiment [2] it was less than 1 µM.

On to `CN(C)c1c(C(=O)NC2CCc3ccccc32)cnc2c1ccn2-c1cccc(Cl)c1Cl` (centres unmarked) [Compound 2], for which the EC50 in experiment [1] is greater than 30 µM; in experiment [2] it was less than 1 µM.

As to `O=C(NC1CCc2ccccc21)c1cnc2c(ccn2-c2cc(Cl)cc(Cl)c2)c1N1CCOCC1` (centres unmarked) [Compound 3], the EC50 in experiment [1] is greater than 30 µM.

As to `O=C(NC1CCc2ccccc21)c1cnc2c(ccn2-c2cccc(Cl)c2Cl)c1N1CCOCC1` (centres unmarked) [Compound 4], the EC50 is greater than 30 µM in experiment [1] and less than 1 µM in experiment [2].

As to `CN(C)c1c(C(=O)NC2CCOc3ccccc32)cnc2c1ccn2-c1cccc(Cl)c1Cl` (centres unmarked) [Compound 6], the EC50 was greater than 30 µM in experiment [1] and less than 1 µM in experiment [2].

`O=C(NC1CCOc2ccccc21)c1cnc2c(ccn2-c2cc(Cl)cc(Cl)c2)c1N1CCOCC1` (centres unmarked) [Compound 7] gave a concentration for a half-maximal effect (EC50) in experiment [1] greater than 30 µM.

In experiment [1], `CN(C)c1c(C(=O)NCc2ccccc2)cnc2c1ccn2-c1cc(Cl)cc(Cl)c1` [Compound 9] registered an EC50 greater than 30 µM.

As to `CN(C)c1c(C(=O)NCc2ccccc2)cnc2c1ccn2-c1cccc(Cl)c1Cl` [Compound 10], the concentration for a half-maximal effect (EC50) is greater than 30 µM in experiment [1] and less than 1 µM in experiment [2].

`O=C(NCc1ccccc1)c1cnc2c(ccn2-c2cccc(Cl)c2Cl)c1N1CCOCC1` [Compound 12]: in experiment [1], the EC50 is greater than 30 µM.

Take `CN(C)c1c(C(=O)N[C@H]2CCOc3ccccc32)cnc2c1ccn2-c1cccc(Cl)c1Cl` [Compound 13]: the results for the EC50 in experiment [1] and in experiment [2] were greater than 30 µM and less than 1 µM, respectively.

For the compound `CN(C)c1c(C(=O)N[C@H]2CCCc3ccccc32)cnc2c1ccn2-c1cccc(Cl)c1Cl` [Compound 14, (S)-1-(2,3-dichlorophenyl)-4-(dimethylamino)-N-(1,2,3,4-tetrahydronaphthalen-1-yl)-1H-pyrrolo[2,3-b]pyridine-5-carboxamide], the EC50 in experiment [1] is 10 to 30 µM; in experiment [2] it was less than 1 µM.

`CN(C)c1c(C(=O)N[C@H]2CCc3ccccc32)cnc2c1ccn2-c1cccc(Cl)c1Cl` [Compound 16]: the figures for the EC50 in experiment [1] and in experiment [2] were greater than 30 µM and less than 1 µM, respectively.

Consider `O=C(N[C@H]1CCCc2ccccc21)c1cnc2c(ccn2-c2cccc(Cl)c2Cl)c1N1CCOCC1` [Compound 17], for which the EC50 is 10 to 30 µM in experiment [1] and less than 1 µM in experiment [2].

`O=C(N[C@H]1CCc2ccccc21)c1cnc2c(ccn2-c2cccc(Cl)c2Cl)c1N1CCOCC1` [Compound 22] registered an EC50 in experiment [1] greater than 30 µM.

In the case of `CN(C)c1c(C(=O)N[C@H]2CCOc3ccccc32)cnc2c1ccn2-c1cc(Cl)cc(Cl)c1` [Compound 32], in experiment [1], the EC50 was greater than 30 µM.

Regarding `O=C(N[C@H]1CCOc2ccccc21)c1cnc2c(ccn2-c2cc(Cl)cc(Cl)c2)c1N1CCOCC1` [Compound 33], in experiment [1], the EC50 is greater than 30 µM.

Take `O=C(N[C@H]1CCCc2ccccc21)c1cnc2c(ccn2-c2cc(Cl)cc(Cl)c2)c1N1CCOCC1` [Compound 35]: the concentration giving a half-maximal response (EC50) in experiment [1] is greater than 30 µM.

`O=C(Nc1cccc2ccccc12)c1cnc2c(ccn2-c2cc(Cl)cc(Cl)c2)c1N1CCOCC1` [Compound 42] came in with an EC50 in experiment [1] greater than 30 µM.

In experiment [1], `CCOc1c(C(=O)N[C@H]2CCc3ccccc32)cnc2c1ccn2-c1cc(Cl)cc(Cl)c1` [Compound 44] gave an EC50 greater than 30 µM.

For the compound `CCOc1c(C(=O)N[C@H]2CCCc3ccccc32)cnc2c1ccn2-c1cc(Cl)cc(Cl)c1` [Compound 45], in experiment [1], the half-maximal effective concentration (EC50) is greater than 30 µM.

`CCOc1c(C(=O)Nc2cccc3ccccc23)cnc2c1ccn2-c1cc(Cl)cc(Cl)c1` [Compound 46] came in with an EC50 in experiment [1] greater than 30 µM.

Take `COc1c(C(=O)N[C@H]2CCOc3ccccc32)cnc2c1ccn2-c1cc(Cl)cc(Cl)c1` [Compound 47]: in experiment [1], the EC50 was greater than 30 µM.

Regarding `COc1c(C(=O)N[C@H]2CCc3ccccc32)cnc2c1ccn2-c1cc(Cl)cc(Cl)c1` [Compound 49], in experiment [1], the EC50 was greater than 30 µM.
